Molecules are shown by their SMILES. Calls of active or inactive are those of the source. No cut-off for these calls is given here.

The target of test [1] is T1, Transcriptional enhancer factor TEF-3 (Homo sapiens, UniProt Q15561). Nature of the test: Binding affinity to N-terminal His6 tagged human TEAD4-YBD (217 to 434 residues) expressed in Escherichia coli C43 (DE3) cells assessed as covalent modification at Cys367 residue by HPLC-MS/MS analysis.
Test [2] addresses T1, Transcriptional enhancer factor TEF-3. The experiment in a line: Binding affinity to N-terminal His6-tagged human TEAD4-YBD (217 to 434 residues) expressed in Escherichia coli C43 (DE3) cells assessed as change in melting temperature at 1:2 ratio by SYPRO-dye based thermal shift assay.
Test [3] addresses LIM domain kinase 2 (Homo sapiens) (UniProt P53671). The experiment in a line: Inhibition of human LIMK2 at 10 uM by radiometric assay relative to control.
Test [4] addresses Serine/threonine-protein kinase/endoribonuclease IRE1 (Homo sapiens) (UniProt O75460). The experiment in a line: Inhibition of recombinant human IRE1 (465 to end residues) at 10 uM using myelin basic protein as substrate measured after 40 mins in presence of [gamma33P]ATP by scintillation counting method relative to control.
The target in test [5] is Mitogen-activated protein kinase kinase kinase 7 (Homo sapiens) (UniProt O43318). The experiment in a line: Inhibition of recombinant human TAK1 (1 to 303 residues) at 10 uM using casein as substrate measured after 40 mins in presence of [gamma33P]ATP by scintillation counting method relative to control.
The target in test [6] is Transcription initiation factor TFIID subunit 1-like (Homo sapiens) (UniProt Q8IZX4). The experiment in a line: Inhibition of recombinant human TAF1L (1428 to end residues) at 10 uM using RRRFRPASPLRGPPK as substrate measured after 120 mins in presence of [gamma33P]ATP by scintillation counting method relative to control.
Test [7] deals with Ribosomal protein S6 kinase alpha-1 (Homo sapiens) (UniProt Q15418). Nature of the test: Inhibition of full length recombinant human Rsk1 at 10 uM using KKKNRTLSVA as substrate after 40 mins in presence of [gamma33P]ATP by scintillation counting method relative to control.
In test [8] the test system is Serine/threonine-protein kinase N1 (Homo sapiens), Q16512 [V901I]. The experiment in a line: Inhibition of human PRK1 V901I mutant (498 to end residues) at 10 uM using KKLNRTLSFAEPG as substrate measured after 40 mins in presence of [gamma33P]ATP by scintillation counting method relative to control.
The species named for a further test is Homo sapiens. The experiment in a line: Inhibition of full length recombinant human PRAK R291E mutant at 10 uM using KKLRRTLSVA as substrate after 40 mins in presence of [gamma33P]ATP by scintillation counting method relative to control.
Test [9] concerns Glycogen synthase kinase-3 beta (Homo sapiens), P49841 [UNDEFINED MUTATION]. The experiment in a line: Inhibition of recombinant human GSK3beta H350L mutant (2 to end residues) at 10 uM using phospho GS2 peptide as substrate measured after 40 mins in presence of [gamma33P]ATP by scintillation counting method relative to control.
Test [10] deals with Rhodopsin kinase GRK1 (Homo sapiens) (UniProt Q15835). Nature of the test: Inhibition of full length recombinant human GRK1 at 10 uM using KKKKERLLDDRHDSGLDSMKDEE as substrate after 40 mins in presence of [gamma33P]ATP by scintillation counting method relative to control.
Test [11] concerns the target Fibroblast growth factor receptor 4 (Homo sapiens) (UniProt P22455). Nature of the test: Inhibition of recombinant human FGFR4 (442 to 755 residues) at 10 uM using poly(Glu, Tyr) 4:1 as substrate measured after 40 mins in presence of [gamma33P]ATP by scintillation counting method relative to control.
In test [12] the target is Focal adhesion kinase 1 (Homo sapiens) (UniProt Q05397). Nature of the test: Inhibition of recombinant human FAK (411 to 686 residues) at 10 uM using EEEEYEEEEEEYYIIEEEEEEYEEEEEEYYEEEEEEKKKK as substrate measured after 40 mins in presence of [gamma33P]ATP by scintillation counting method relative to control.
Test [13] addresses Proto-oncogene tyrosine-protein kinase Src (Homo sapiens) (UniProt P12931). Nature of the test: Inhibition of recombinant full length human cSRC at 10 uM using KVEKIGEGTYGVVYK as substrate measured after 40 mins in presence of [gamma33P]ATP by scintillation counting method relative to control.
For test [14], the target named is Serine/threonine-protein kinase 38-like (Homo sapiens) (UniProt Q9Y2H1). Nature of the test: Inhibition of recombinant human NDR2 (83 to end residues) at 10 uM using RSRSRSRSRSRSRSR as substrate measured after 40 mins in presence of [gamma33P]ATP by scintillation counting method relative to control.
The target of test [15] is Serine/threonine-protein kinase 24 (Homo sapiens) (UniProt Q9Y6E0). The experiment in a line: Inhibition of recombinant human MST3 (1 to 304 residues) at 10 uM using ERMRPRKRQGSVRRRV as substrate measured after 40 mins in presence of [gamma33P]ATP by scintillation counting method relative to control.
The target of test [16] is Serine/threonine-protein kinase Chk2 (Homo sapiens) (UniProt O96017). The experiment in a line: Inhibition of recombinant human CHK2 (5 to end residues) at 10 uM using KKKVSRSGLYRSPSMPENLNRPR as substrate measured after 40 mins in presence of [gamma33P]ATP by scintillation counting method relative to control.
Test [17] has as its target CDK6/cyclin D3 (Homo sapiens) (UniProt P30281+Q00534). The experiment in a line: Inhibition of recombinant full-length human CDK6/cyclinD3 at 10 uM using histone H1 as substrate measured after 40 mins in presence of [gamma33P]ATP by scintillation counting method relative to control. The class given is protein-complex assay.
Test [18] concerns the target CDK2/Cyclin A2 (Homo sapiens) (UniProt P24941+P20248). Nature of the test: Inhibition of recombinant full-length human CDK2/cyclinA at 10 uM using histone H1 as substrate measured after 40 mins in presence of [gamma33P]ATP by scintillation counting method relative to control. The class given is protein-complex assay.
For test [19], the system named is CDK18/Cyclin Y (Homo sapiens), Q07002+Q8ND76 [T166M]. Nature of the test: Inhibition of recombinant full length human cyclinY/CDK18 T166M mutant at 10 uM using YRRAAVPPSPSLS as substrate measured after 40 mins in presence of [gamma33P]ATP by scintillation counting method relative to control. The class given is protein-complex assay.
Test [20] concerns the target Cyclin-dependent kinase 13/Cyclin-K (Homo sapiens) (UniProt Q14004+O75909). Nature of the test: Inhibition of full-length recombinant human CDK13/cyclinK at 10 uM using RSRSRSRSRSRSRSR as substrate after 120 mins by in presence of [gamma33P]ATP by scintillation counting method relative to control. The class given is protein-complex assay.
In test [21] the target is Mitogen-activated protein kinase kinase kinase 10 (Homo sapiens) (UniProt Q02779). Nature of the test: Inhibition of recombinant human MLK2 (1 to 449 residues) at 10 uM using myelin basic protein as substrate measured after 40 mins in presence of [gamma33P]ATP by scintillation counting method relative to control.
The target in test [22] is Tyrosine-protein kinase ZAP-70 (Homo sapiens) (UniProt P43403). The experiment in a line: Inhibition of recombinant full-length human ZAP70 at 10 uM using poly(Glu, Tyr) 4:1 as substrate measured after 40 mins in presence of [gamma33P]ATP by scintillation counting method5 relative to control.
Tyrosine-protein kinase ZAP-70 (Homo sapiens), sequence (P43403 whole entry): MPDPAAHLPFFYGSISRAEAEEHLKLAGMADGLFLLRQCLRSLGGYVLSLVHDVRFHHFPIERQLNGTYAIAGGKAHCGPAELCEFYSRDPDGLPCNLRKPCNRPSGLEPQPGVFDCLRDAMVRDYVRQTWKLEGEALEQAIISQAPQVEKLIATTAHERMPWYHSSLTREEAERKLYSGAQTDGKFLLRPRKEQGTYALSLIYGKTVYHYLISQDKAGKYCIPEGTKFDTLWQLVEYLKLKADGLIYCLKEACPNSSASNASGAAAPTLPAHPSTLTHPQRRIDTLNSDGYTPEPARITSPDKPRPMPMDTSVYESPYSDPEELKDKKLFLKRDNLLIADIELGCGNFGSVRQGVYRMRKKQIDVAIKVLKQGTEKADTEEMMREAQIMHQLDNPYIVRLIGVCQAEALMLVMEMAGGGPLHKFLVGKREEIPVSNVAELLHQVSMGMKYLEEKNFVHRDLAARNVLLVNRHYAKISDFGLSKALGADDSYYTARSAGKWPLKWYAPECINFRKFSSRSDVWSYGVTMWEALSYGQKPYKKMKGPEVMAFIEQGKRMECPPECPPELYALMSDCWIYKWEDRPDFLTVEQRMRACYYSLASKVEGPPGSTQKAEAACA

T1 sequence (Q15561 whole entry, the tested form may be a part): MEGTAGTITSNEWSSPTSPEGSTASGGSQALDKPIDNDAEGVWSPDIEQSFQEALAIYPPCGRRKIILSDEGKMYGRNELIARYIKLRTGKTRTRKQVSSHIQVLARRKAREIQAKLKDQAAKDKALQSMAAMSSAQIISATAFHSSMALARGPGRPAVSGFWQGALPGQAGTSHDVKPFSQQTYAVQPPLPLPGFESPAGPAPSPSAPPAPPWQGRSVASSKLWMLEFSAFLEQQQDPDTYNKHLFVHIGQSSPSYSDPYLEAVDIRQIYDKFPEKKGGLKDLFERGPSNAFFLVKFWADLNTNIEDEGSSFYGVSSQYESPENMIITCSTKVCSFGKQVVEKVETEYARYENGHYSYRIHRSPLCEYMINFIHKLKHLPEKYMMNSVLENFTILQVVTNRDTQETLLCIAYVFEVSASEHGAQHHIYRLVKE
Serine/threonine-protein kinase 38-like (Homo sapiens), sequence (Q9Y2H1 2-464 limits assumed): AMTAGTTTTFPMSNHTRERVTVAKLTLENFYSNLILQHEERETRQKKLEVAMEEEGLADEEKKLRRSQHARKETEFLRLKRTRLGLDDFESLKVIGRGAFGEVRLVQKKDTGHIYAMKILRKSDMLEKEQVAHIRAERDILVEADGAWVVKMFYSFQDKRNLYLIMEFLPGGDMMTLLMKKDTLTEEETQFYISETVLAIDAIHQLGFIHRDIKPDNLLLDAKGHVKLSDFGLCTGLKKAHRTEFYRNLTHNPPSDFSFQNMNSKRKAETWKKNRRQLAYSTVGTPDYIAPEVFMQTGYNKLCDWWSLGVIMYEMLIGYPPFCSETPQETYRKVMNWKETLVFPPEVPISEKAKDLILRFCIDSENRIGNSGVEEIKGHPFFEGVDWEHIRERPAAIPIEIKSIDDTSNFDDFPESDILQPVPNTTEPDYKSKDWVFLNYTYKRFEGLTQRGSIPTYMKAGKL
Ribosomal protein S6 kinase alpha-1 (Homo sapiens), sequence (Q15418 whole entry): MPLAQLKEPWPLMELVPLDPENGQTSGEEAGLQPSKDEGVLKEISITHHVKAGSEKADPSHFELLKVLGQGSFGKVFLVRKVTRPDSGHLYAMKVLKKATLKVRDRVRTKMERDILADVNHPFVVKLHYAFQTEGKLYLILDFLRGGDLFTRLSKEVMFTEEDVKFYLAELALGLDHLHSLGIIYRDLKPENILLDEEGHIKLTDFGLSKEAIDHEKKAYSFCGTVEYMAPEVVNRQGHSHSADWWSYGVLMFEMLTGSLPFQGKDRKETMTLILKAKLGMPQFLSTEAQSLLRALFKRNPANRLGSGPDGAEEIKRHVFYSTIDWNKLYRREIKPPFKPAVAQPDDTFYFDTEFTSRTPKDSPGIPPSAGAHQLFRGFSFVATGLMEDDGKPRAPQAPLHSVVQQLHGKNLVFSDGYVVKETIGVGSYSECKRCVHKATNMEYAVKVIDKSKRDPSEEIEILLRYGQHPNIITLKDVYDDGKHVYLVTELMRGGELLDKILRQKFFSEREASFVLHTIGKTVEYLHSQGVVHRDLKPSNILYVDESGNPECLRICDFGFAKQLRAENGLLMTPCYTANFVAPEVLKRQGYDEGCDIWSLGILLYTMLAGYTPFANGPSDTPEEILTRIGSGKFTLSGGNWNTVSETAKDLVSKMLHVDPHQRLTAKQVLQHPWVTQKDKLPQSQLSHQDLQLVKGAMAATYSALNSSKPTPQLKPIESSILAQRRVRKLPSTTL
LIM domain kinase 2 (Homo sapiens), sequence (P53671 whole entry, looked up, the tested form may be a part): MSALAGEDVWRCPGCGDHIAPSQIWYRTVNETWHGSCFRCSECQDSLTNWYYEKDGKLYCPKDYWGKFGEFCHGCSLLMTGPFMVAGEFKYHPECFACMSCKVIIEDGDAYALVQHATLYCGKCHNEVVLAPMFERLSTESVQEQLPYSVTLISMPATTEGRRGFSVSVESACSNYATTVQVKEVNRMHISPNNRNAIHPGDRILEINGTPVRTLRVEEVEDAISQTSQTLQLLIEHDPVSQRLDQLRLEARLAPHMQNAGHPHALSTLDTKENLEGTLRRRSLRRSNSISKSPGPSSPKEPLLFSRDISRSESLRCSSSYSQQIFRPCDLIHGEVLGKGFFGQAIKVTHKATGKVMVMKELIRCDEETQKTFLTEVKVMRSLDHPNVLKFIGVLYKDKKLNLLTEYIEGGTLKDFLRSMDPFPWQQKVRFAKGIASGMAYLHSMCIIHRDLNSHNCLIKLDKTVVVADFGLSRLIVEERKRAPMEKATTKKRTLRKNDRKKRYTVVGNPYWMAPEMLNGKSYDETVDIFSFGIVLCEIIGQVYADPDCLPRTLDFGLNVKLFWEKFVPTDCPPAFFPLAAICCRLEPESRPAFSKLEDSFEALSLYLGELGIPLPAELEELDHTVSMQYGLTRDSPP
Rhodopsin kinase GRK1 (Homo sapiens), sequence (Q15835 whole entry, the tested form may be a part): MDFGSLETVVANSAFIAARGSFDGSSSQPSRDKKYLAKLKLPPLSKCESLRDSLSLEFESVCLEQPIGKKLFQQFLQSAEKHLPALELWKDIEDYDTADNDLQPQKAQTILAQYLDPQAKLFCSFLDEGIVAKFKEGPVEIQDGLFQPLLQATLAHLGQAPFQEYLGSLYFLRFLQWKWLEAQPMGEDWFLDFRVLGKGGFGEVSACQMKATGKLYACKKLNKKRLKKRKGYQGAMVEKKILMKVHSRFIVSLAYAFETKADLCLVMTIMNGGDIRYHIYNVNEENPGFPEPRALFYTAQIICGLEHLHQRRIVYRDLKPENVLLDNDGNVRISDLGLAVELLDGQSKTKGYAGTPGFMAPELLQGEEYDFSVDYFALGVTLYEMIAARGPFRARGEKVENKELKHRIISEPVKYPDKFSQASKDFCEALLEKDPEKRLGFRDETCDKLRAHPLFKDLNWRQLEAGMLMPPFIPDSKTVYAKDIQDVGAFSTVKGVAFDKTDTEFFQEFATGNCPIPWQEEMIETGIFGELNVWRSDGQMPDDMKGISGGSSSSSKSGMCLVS
Focal adhesion kinase 1 (Homo sapiens), sequence (Q05397 2-1052 limits assumed): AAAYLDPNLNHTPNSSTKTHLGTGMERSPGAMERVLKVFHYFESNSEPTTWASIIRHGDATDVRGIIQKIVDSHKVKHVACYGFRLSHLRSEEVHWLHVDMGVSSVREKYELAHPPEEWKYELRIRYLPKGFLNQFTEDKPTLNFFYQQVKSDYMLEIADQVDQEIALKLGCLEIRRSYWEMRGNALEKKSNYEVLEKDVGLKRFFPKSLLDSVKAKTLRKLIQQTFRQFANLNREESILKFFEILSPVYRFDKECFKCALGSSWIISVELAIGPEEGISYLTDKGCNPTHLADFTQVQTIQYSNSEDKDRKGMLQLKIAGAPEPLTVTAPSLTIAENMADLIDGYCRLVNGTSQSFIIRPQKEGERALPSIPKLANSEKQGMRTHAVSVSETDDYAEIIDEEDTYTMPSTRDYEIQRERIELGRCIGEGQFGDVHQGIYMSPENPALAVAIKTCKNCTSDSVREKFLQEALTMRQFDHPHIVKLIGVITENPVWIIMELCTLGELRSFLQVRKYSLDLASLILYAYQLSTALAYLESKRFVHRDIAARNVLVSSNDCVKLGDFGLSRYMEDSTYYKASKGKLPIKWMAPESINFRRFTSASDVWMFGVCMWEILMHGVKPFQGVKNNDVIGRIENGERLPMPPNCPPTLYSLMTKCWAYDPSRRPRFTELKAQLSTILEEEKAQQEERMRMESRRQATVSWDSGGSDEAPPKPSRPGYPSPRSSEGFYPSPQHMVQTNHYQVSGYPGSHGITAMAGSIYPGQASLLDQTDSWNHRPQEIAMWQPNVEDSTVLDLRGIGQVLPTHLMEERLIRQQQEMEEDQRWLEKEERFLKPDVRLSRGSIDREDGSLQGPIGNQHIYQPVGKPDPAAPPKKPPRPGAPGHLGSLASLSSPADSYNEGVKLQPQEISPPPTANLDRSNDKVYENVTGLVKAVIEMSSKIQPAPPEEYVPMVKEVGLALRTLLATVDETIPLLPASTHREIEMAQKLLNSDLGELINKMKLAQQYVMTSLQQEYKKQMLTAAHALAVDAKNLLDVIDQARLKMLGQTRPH
Glycogen synthase kinase-3 beta (Homo sapiens), P49841 [UNDEFINED MUTATION], sequence (P49841 whole entry, looked up, stated change not applied): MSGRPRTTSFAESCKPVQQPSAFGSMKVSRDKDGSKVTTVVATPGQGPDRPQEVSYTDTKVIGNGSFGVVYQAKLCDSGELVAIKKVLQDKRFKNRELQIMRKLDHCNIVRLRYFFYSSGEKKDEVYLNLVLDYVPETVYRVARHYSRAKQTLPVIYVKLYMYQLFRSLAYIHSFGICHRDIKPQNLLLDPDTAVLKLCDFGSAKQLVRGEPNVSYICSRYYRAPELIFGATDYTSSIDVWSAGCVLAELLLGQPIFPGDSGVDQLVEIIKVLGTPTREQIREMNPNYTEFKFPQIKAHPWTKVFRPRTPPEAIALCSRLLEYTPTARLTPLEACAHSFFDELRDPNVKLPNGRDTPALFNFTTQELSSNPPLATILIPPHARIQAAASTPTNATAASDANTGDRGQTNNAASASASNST

As for `C=CS(=O)(=O)Nc1ccc(Cc2ccc3ccccc3c2)cc1`, in [1], the outcome was Active. Further, in [2], the ΔTm (as a rule, the shift of the melting midpoint relative to a reference) turned out to be 7.4 °C. Moreover, the inhibition – broadly, the drop in the measured response relative to a control, in per cent – in test [3] was -8%; in test [4], -4%; in test [5], 5%; in test [6], -4%; in [7], 22%; in test [8], 2%. Also, the inhibition in the test filed under Homo sapiens is 2%; in test [9] it was -2%; in test [10], 7%; in [11], -4%; in test [12], -3%; in test [13] it was -4%. In addition, the inhibition in test [14] is -6%; in test [15], 3%; in test [16], -7%; in test [17], -1%; in [18], 10%; in test [19], -5%. The inhibition in test [20] worked out at 17%; in test [21], 2%; in test [22] it was 5%.

For the origin of these results see ChEMBL document CHEMBL4376829, “Discovery and biological evaluation of vinylsulfonamide derivatives as highly potent, covalent TEAD autopalmitoylation inhibitors” (Eur J Med Chem, 2019).
